Legend:
Assay in all cases: EN 1276 bactericidal activity
Assay type in all cases: cell-based
Conditions in all cases: diluted to 1:20 v/v; 5 minutes at 20° C.; dirty conditions
[1] = system: Pseudomonas aeruginosa (NCI MB 10421)
[2] = system: Escherichia coli (NCTC 10418)
[3] = system: Staphylococcus aureus (NCTC 10788)
[4] = system: Enterococcus hirae (NCIMB 8192)

Measured: passes the requirements of EN 1276 for bactericidal activity

Cc1cc(O)ccc1Cl [Acticide PCMC, P-chloro-m-cresol]
does not pass: all assays above

CCCCCCCCCC[N+](C)(C)CCCCCCCCCC.[Cl-] [Acticide DDQ50, Didecyl Dimethyl Ammonium Chloride]
does not pass: all assays above

Benzalkonium chloride [Acticide BAC50M]
does not pass: all assays above

O=[N+]([O-])C(Br)(CO)CO [Acticide L, Bronopol]
does not pass: all assays above

Source: patent US9961896B2, “Cleaning liquid” (priority 2013, dated 2018)
